Laboratory results taken from PubChem BioAssay AID330 (DTP/NCI, 2004).
“And” between values parts separate entries of the source, which are not always exact repeats. Equal values may be shown once. Inconclusive results and toxic doses are left out.

Tested on: P388 leukemia ip, CD2F1 mice, survival T/C
Assay: NCI In Vivo Anticancer Drug Screen. Data for tumor model P388 Leukemia (intraperitoneal) in CD2F1 (CDF1) mice
Details: endpoint: median survival time, higher = longer survival
Procedure, shortened: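 Mice carrying the transplanted tumor received test compound or vehicle. Survival was recorded in each group, and the value is the treated-group measurement divided by that of the vehicle-treated control group.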

[1] = dose: 50.0 mg/kg/injection, schedule: Q01DX009 (ip), vehicle: saline
[2] = dose: 100.0 mg/kg/injection, schedule: Q01DX009 (ip), vehicle: saline
[3] = dose: 200.0 mg/kg/injection, schedule: Q01DX009 (ip), vehicle: saline
[4] = dose: 60.0 mg/kg/injection, schedule: Q01DX005 (ip), vehicle: saline with Tween-80
[5] = dose: 240.0 mg/kg/injection, schedule: Q01DX005 (ip), vehicle: saline with Tween-80
[6] = dose: 50.0 mg/kg/injection, schedule: Q01DX009 (ip), vehicle: Klucel (hydroxypropylcellulose) (HPC)
[7] = dose: 100.0 mg/kg/injection, schedule: Q01DX009 (ip), vehicle: Klucel (hydroxypropylcellulose) (HPC)
[8] = dose: 200.0 mg/kg/injection, schedule: Q01DX009 (ip), vehicle: Klucel (hydroxypropylcellulose) (HPC)
[9] = dose: 120.0 mg/kg/injection, schedule: Q01DX005 (ip), vehicle: saline with Tween-80
[10] = dose: 50.0 mg/kg/injection, schedule: Q01DX005 (ip), vehicle: saline with Tween-80
[11] = dose: 100.0 mg/kg/injection, schedule: Q01DX005 (ip), vehicle: saline with Tween-80
[12] = dose: 200.0 mg/kg/injection, schedule: Q01DX005 (ip), vehicle: saline with Tween-80
[13] = dose: 50.0 mg/kg/injection, schedule: Q01DX009 (ip), vehicle: saline with Tween-80
[14] = dose: 100.0 mg/kg/injection, schedule: Q01DX009 (ip), vehicle: saline with Tween-80
[15] = dose: 200.0 mg/kg/injection, schedule: Q01DX009 (ip), vehicle: saline with Tween-80
[16] = dose: 25.0 mg/kg/injection, schedule: Q01DX005 (ip), vehicle: saline with Tween-80

`O=P(c1ccccc1)(c1ccccc1)c1ccccc1.[CH3][Sn]([Cl])([Cl])[c]1ccccc1` was tested, and the T/C (dose: 12.5 mg/kg/injection, schedule: Q04DX003 (ip), vehicle: saline) was 100 % of control and 118 % of control, the T/C (dose: 25.0 mg/kg/injection, schedule: Q04DX003 (ip), vehicle: saline) was 100 % of control and 104 % of control and the T/C (dose: 50.0 mg/kg/injection, schedule: Q04DX003 (ip), vehicle: saline) was 100 % of control and 101 % of control. For the same compound, the T/C (dose: 100.0 mg/kg/injection, schedule: Q04DX003 (ip), vehicle: saline) was 100 % of control and 110 % of control.
In the case of `C[CH2][Ge]([CH3])([CH2]C)[CH2]CCC[CH2][Sn]([CH3])([CH3])[CH3]`, the T/C [1] is reported as 98 % of control, the T/C [2] is reported as 99 % of control and the T/C [3] is reported as 97 % of control.
With `Cc1cccc(C)c1NC(=O)Nc1cccc(C#N)c1` the T/C (dose: 15.0 mg/kg/injection, schedule: Q01DX005 (ip), vehicle: saline with Tween-80) was 91 % of control, the T/C (dose: 30.0 mg/kg/injection, schedule: Q01DX005 (ip), vehicle: saline with Tween-80) was 95 % of control and the T/C [4] was 91 % of control. The T/C [5] was 89 % of control.
`Cc1cc(=O)[nH]c(/N=C(/N)N(C)C)n1` was tested, and the T/C [1] was 101 % of control, the T/C [2] was 98 % of control and the T/C [3] was 108 % of control.
With `CCOC(=O)/C=C(/C)Sc1cc(O)c2ccccc2c1O` the T/C (dose: 6.25 mg/kg/injection, schedule: Q01DX009 (ip), vehicle: saline with Tween-80) was 100 % of control.
With `C=CCn1c(Br)nc2c1c(=O)n(CC)c(=O)n2CC` the T/C (dose: 16.0 mg/kg/injection, schedule: Q01DX009 (ip), vehicle: Klucel (hydroxypropylcellulose) (HPC)) was 107 % of control, the T/C (dose: 32.0 mg/kg/injection, schedule: Q01DX009 (ip), vehicle: Klucel (hydroxypropylcellulose) (HPC)) was 107 % of control and the T/C [6] was 89 % of control. The T/C (dose: 64.0 mg/kg/injection, schedule: Q01DX009 (ip), vehicle: Klucel (hydroxypropylcellulose) (HPC)) was 93 % of control, the T/C [7] was 91 % of control and the T/C [8] was 94 % of control.
`CC(C)(Br)C(=O)/C=C/c1ccc(Cl)c(Cl)c1` was tested, and the T/C [4] was 111 % of control, the T/C [9] was 118 % of control and the T/C [5] was 108 % of control.
In the case of `O=C(NCc1ccco1)Nc1c(Cl)cc(Cl)cc1Cl`, the T/C [4] is reported as 103 % of control, the T/C [9] is reported as 100 % of control and the T/C [5] is reported as 100 % of control.
`c1ccc(CC2NCCc3c2[nH]c2ccccc32)cc1` (stereo not drawn) was tested, and the T/C [10] was 100 % of control, the T/C [11] was 99 % of control and the T/C [12] was 94 % of control.
For `CC1Oc2[nH]c(=O)n(-c3ccc(Cl)cc3)c(=S)c2C1C` (stereo not drawn), the T/C (dose: 12.5 mg/kg/injection, schedule: Q01DX001 (ip), vehicle: Klucel (hydroxypropylcellulose) (HPC)) was 100 % of control, the T/C (dose: 25.0 mg/kg/injection, schedule: Q01DX001 (ip), vehicle: Klucel (hydroxypropylcellulose) (HPC)) was 102 % of control and the T/C (dose: 50.0 mg/kg/injection, schedule: Q01DX001 (ip), vehicle: Klucel (hydroxypropylcellulose) (HPC)) was 101 % of control.
With `CCCC1(CC(=O)O)OCCc2c1[nH]c1ccccc21` (stereo not drawn) the T/C [6] was 102 % of control and the T/C [7] was 108 % of control.
With `COc1c(C)n(CCO)ccc1=O` the T/C (dose: 50.0 mg/kg/injection, schedule: Q01DX005 (ip), vehicle: saline) was 102 % of control and 104 % of control, the T/C (dose: 100.0 mg/kg/injection, schedule: Q01DX005 (ip), vehicle: saline) was 99 % of control and 100 % of control and the T/C (dose: 200.0 mg/kg/injection, schedule: Q01DX005 (ip), vehicle: saline) was 99 % of control and 100 % of control. The T/C (dose: 400.0 mg/kg/injection, schedule: Q01DX005 (ip), vehicle: saline) was 99 % of control and 103 % of control.
With `CCOC(=O)N(CCCl)N=O` the T/C (dose: 0.31 mg/kg/injection, schedule: Q01DX009 (ip), vehicle: saline with Tween-80) was 114 % of control, the T/C (dose: 0.62 mg/kg/injection, schedule: Q01DX009 (ip), vehicle: saline with Tween-80) was 118 % of control and the T/C (dose: 2.5 mg/kg/injection, schedule: Q01DX009 (ip), vehicle: saline with Tween-80) was 96 % of control.
In the case of `Cc1nc(=O)oc(NC(C)C)c1Cl`, the T/C (dose: 25.0 mg/kg/injection, schedule: Q01DX009 (ip), vehicle: saline with Tween-80) is reported as 100 % of control and 107 % of control, the T/C [13] is reported as 106 % of control and 95 % of control and the T/C [1] is reported as 110 % of control. The T/C [14] was 113 % of control and 97 % of control, the T/C [2] was 103 % of control and the T/C [15] was 99 % of control and 116 % of control.
In the case of `Cc1nc(-c2ccccc2)nc2c1nc(C(C)C)n2Nc1ccccc1`, the T/C [10] is reported as 96 % of control and the T/C [11] is reported as 98 % of control.
In the case of `COc1cc(N=Nc2cc(CN(C)C)cc3ncccc23)c(OC)cc1N=Nc1ccc([N+](=O)[O-])cc1`, the T/C (dose: 12.5 mg/kg/injection, schedule: Q01DX005 (ip), vehicle: saline with Tween-80) is reported as 98 % of control, the T/C (dose: 12.5 mg/kg/injection, schedule: Q01DX009 (ip), vehicle: Klucel (hydroxypropylcellulose) (HPC)) is reported as 93 % of control and the T/C [16] is reported as 109 % of control. For the same compound, the T/C (dose: 25.0 mg/kg/injection, schedule: Q01DX009 (ip), vehicle: Klucel (hydroxypropylcellulose) (HPC)) was 91 % of control, the T/C (dose: 38.25 mg/kg/injection, schedule: Q01DX009 (ip), vehicle: Klucel (hydroxypropylcellulose) (HPC)) was 102 % of control and the T/C [10] was 100 % of control. For the same compound, the T/C [6] was 120 % of control and 93 % of control, the T/C (dose: 76.5 mg/kg/injection, schedule: Q01DX009 (ip), vehicle: Klucel (hydroxypropylcellulose) (HPC)) was 94 % of control and the T/C [11] was 107 % of control. The T/C [7] was 99 % of control and 115 % of control and 95 % of control, the T/C (dose: 153.0 mg/kg/injection, schedule: Q01DX009 (ip), vehicle: Klucel (hydroxypropylcellulose) (HPC)) was 95 % of control and the T/C [12] was 107 % of control. For the same compound, the T/C [8] was 108 % of control and 93 % of control, the T/C (dose: 306.0 mg/kg/injection, schedule: Q01DX009 (ip), vehicle: Klucel (hydroxypropylcellulose) (HPC)) was 110 % of control and the T/C (dose: 400.0 mg/kg/injection, schedule: Q01DX005 (ip), vehicle: saline with Tween-80) was 109 % of control. For the same compound, the T/C (dose: 400.0 mg/kg/injection, schedule: Q01DX009 (ip), vehicle: Klucel (hydroxypropylcellulose) (HPC)) was 102 % of control and 94 % of control.
With `CCCn1c(C)nc2c(N)cc(C)cc21` the T/C (dose: 25.0 mg/kg/injection, schedule: Q01DX005 (ip), vehicle: Klucel (hydroxypropylcellulose) (HPC)) was 101 % of control, the T/C (dose: 50.0 mg/kg/injection, schedule: Q01DX005 (ip), vehicle: Klucel (hydroxypropylcellulose) (HPC)) was 94 % of control and the T/C (dose: 100.0 mg/kg/injection, schedule: Q01DX005 (ip), vehicle: Klucel (hydroxypropylcellulose) (HPC)) was 97 % of control.
In the case of `CCCC(O)/C=C/C=C/C=C/C#CC#CCCCO` (stereo not drawn), the T/C (dose: 0.25 mg/kg/injection, schedule: Q01DX005 (ip), vehicle: DMSO) is reported as 105 % of control, the T/C (dose: 1.0 mg/kg/injection, schedule: Q01DX005 (ip), vehicle: DMSO) is reported as 101 % of control and 110 % of control and the T/C (dose: 2.0 mg/kg/injection, schedule: Q01DX005 (ip), vehicle: DMSO) is reported as 124 % of control and 96 % of control. The T/C (dose: 4.0 mg/kg/injection, schedule: Q01DX005 (ip), vehicle: DMSO) was 104 % of control and the T/C (dose: 8.0 mg/kg/injection, schedule: Q01DX005 (ip), vehicle: DMSO) was 105 % of control.
With `CC1SC(C)(C)N(C=O)C1C(=O)O` (stereo not drawn) the T/C [13] was 99 % of control and 100 % of control, the T/C [14] was 101 % of control and 91 % of control and the T/C [15] was 106 % of control and 94 % of control.
`CNC(=O)OCc1c(-c2ccccc2)c(-c2ccccc2)n(C)c1COC(=O)NC` was tested, and the T/C (dose: 1.56 mg/kg/injection, schedule: Q01DX009 (ip), vehicle: distilled water + Tween-80) was 102 % of control, the T/C (dose: 12.5 mg/kg/injection, schedule: Q01DX009 (ip), vehicle: distilled water + Tween-80) was 154 % of control and 164 % of control and the T/C (dose: 25.0 mg/kg/injection, schedule: Q01DX009 (ip), vehicle: distilled water + Tween-80) was 160 % of control and 174 % of control. For the same compound, the T/C (dose: 50.0 mg/kg/injection, schedule: Q01DX009 (ip), vehicle: distilled water + Tween-80) was 165 % of control and 171 % of control.
For `COc1ccc2[nH]c3cc4ccncc4cc3c2c1`, the T/C (dose: 25.0 mg/kg/injection, schedule: Q04DX002 (ip), vehicle: saline with Tween-80) was 122 % of control, the T/C (dose: 50.0 mg/kg/injection, schedule: Q04DX002 (ip), vehicle: saline with Tween-80) was 97 % of control and the T/C (dose: 100.0 mg/kg/injection, schedule: Q04DX002 (ip), vehicle: saline with Tween-80) was 95 % of control. The T/C (dose: 200.0 mg/kg/injection, schedule: Q04DX002 (ip), vehicle: saline with Tween-80) was 97 % of control.
With `O=C1OC(c2ccccc2)(c2ccccc2)CC1C=C(c1ccccc1)c1ccccc1` (stereo not drawn) the T/C [16] was 92 % of control, the T/C [10] was 89 % of control and 94 % of control and the T/C [11] was 89 % of control.
